Assays:
[1] = system: stratum corneum of porcine skin; experiment: Stratum corneum transparency of dry pig skin after oxidation treatment (observation); conditions: dry pig skin immersed in acrolein 0, 1, 10 and 100 mM for 3 hours; dried (humidity 50%, 25° C.), observed over 24 hours
Experimental: Dry pig skin (Alloask, Taiho Pharmaceutical) was immersed in water for 3 days. The pig skin was subjected to oxidation treatment by immersing in an acrolein solution (Tokyo Chemical Industry) at 0, 1, 10 and 100 mM for 3 hours. Acrolein oxidizes by acting on protein resulting in the formation of an aldehyde-protein adduct. Following oxidation treatment, the pig skin was rinsed with water for 1 hour. After rinsing, the pig skin was initially dried (humidity: 50%, temperature: 25° C.) in a Petri dish with the stratum corneum side facing upward followed by observation of the dried pig skin over the course of 24 hours.

[2] = system: stratum corneum of porcine skin; experiment: Stratum corneum water holding capacity of dry pig skin after oxidation treatment (SKINCON-200); conditions: dry pig skin immersed in acrolein 0, 1, 10 and 100 mM for 3 hours; dried at humidity 50%, temperature 250° C., measured 15 minutes later
Experimental: Dry pig skin (Alloask, Taiho Pharmaceutical) was immersed in water for 3 days. The pig skin was removed and subjected to oxidation treatment by immersing in an acrolein solution (Tokyo Chemical Industry) at 0, 1, 10 and 100 mM for 3 hours. Acrolein oxidizes by acting on protein resulting in the formation of an aldehyde-protein adduct. Following oxidation treatment, the pig skin was rinsed with water for 1 hour. After rinsing, the pig skin was initially dried (humidity: 50%, temperature: […]) in a Petri dish with the stratum corneum side facing upward followed 15 minutes later by measuring the moisture content of the stratum corneum with the SKINCON-200 (IBS).
The results of measuring the moisture content of the stratum corneum are shown in FIG. 1 as skin conductance values.

[3] = system: stratum corneum of black pig skin; experiment: Stratum corneum water holding capacity of black pig skin after oxidation treatment (SKINCON-200); conditions: 1 hour
Experimental: Black pig skin was subjected to oxidation treatment for 1 hour with a 10 mM acrolein solution. After rinsing with water for 1 hour, the water was carefully wiped off, and the change in the water content of the stratum corneum over time was measured with the SKINCON-200.
Black pig skin was treated for 1 hour with 20 mM hypochlorous acid. After rinsing with water for 1 hour, the water was carefully wiped off, and the change in the water content of the stratum corneum over time was measured with the SKINCON-200.

[4] = system: stratum corneum of human forearm skin; experiment: Stratum corneum water holding capacity of human forearm skin after occlusion treatment (SKINCON-200); format: in vivo; conditions: occlusion 1 hour, 20 mM hypochlorous acid vs PBS
Experimental: Human forearm skin was subjected to occlusion treatment for 1 hour with PBS or 20 mM hypochlorous acid. After rinsing with water for 1 hour, the water was carefully wiped off, and the change in the water content of the stratum corneum over time was measured with the SKINCON-200.

Row | SMILES | transparency of the stratum corneum [1] | moisture content of the stratum corneum (skin conductance) [2] | change in the water content of the stratum corneum over time (ability to hold water) ([3]; 10 mM acrolein solution) | change in the water content of the stratum corneum over time (water holding capacity) [4] | change in the water content of the stratum corneum over time (ability to hold water) ([3]; 20 mM hypochlorous acid)
1 | C=CC=O [acrolein] | transparency decreased concentration-dependently | decrease in moisture content was observed that was dependent on the concentration | A decrease was observed in the ability of stratum corneum of the pig skin to hold water |  | 
2 | OCl [hypochlorous acid] |  |  |  | decrease in water holding capacity | A decrease was observed in the ability of stratum corneum of the pig skin to hold water
